Here are results for one compound from article PMC7956620 (Molecules, 2021).

Molecules are shown by their SMILES. Like-named read-outs stand apart in the source and are kept apart here.

The target in this assay is T1, human 5-HT3A receptor (Homo sapiens, UniProt P46098).
T1 construct: host or cells: Xenopus laevis oocytes injected with in vitro transcribed mRNA
T1 sequence (P46098 24-478): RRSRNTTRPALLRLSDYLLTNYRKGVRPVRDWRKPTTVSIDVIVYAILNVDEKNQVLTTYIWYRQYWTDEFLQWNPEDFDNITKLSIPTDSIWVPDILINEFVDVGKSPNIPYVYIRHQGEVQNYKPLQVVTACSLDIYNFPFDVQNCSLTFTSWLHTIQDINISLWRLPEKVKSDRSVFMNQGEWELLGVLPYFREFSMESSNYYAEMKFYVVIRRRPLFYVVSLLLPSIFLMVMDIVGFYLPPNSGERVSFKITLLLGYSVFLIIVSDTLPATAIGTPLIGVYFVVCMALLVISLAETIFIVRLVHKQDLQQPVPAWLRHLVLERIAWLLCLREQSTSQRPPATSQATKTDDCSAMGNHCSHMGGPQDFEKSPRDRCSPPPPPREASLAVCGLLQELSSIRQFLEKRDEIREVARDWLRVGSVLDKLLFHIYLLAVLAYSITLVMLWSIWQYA
Nature of the assay: cell-based. Format: cell-based. To be noted: for inhibition of voltage ramp current activated by 5-HT: 100 µM 5-HT and EC. The protocol: Human 5-hydroxytryptamine (serotonin) receptor 3A cDNA (Genebank number: BC004453) was obtained from OriGene (Rockville, MD, USA). Figure 1A represents the chemical structure of two ergot alkaloids, EG and EC, obtained from Sigma-Aldrich (St. Louis, MO, USA). These ergot alkaloids were diluted in bath solution after dissolving in dimethyl sulfoxide (DMSO) for use as stock solutions. The final treatment concentration of DMSO was less than 0.01%. Xenopus laevis frogs were obtained from the Korean Xenopus Resource Center for Research (KXRCR000001, Chuncheon, Gangwondo, Korea), and other agents were purchased from Sigma-Aldrich.
To isolate oocytes, female Xenopus laevis were put into a container filled with ice and left for about one hour. When the blood vessels contracted and fell into a state similar to hibernation, the abdomen was incised, and the ovaries were removed and cut into small pieces in Ca^2+-free OR2 solution (82.5 mM NaCl, 2.5 mM KCl, 1 mM MgCl2, and 5 mM HEPES, pH 7.4) with 2 mg/mL collagenase. After a 2 h agitation to digest the follicle membranes, isolated oocytes in stages Ⅴ and Ⅵ were selected and washed repeatedly. The selected oocytes were maintained in ND96 incubation solution (96 mM NaCl, 2 mM KCl, 1.8 mM CaCl2, 1 mM MgCl2, 5 mM HEPES, 2.5 mM sodium pyruvate, and 50 µg/mL gentamycin, pH 7.4) at 16–18 °C. The solution containing the oocytes was changed twice a day and stored in a shaking incubator. Under the microscope, the end of a glass capillary was broken and fitted with a 20 µm diameter needle and filled with mineral oil, discharging air bubbles from the tip. When the Xenopus oocytes were ready for injection, 50 ng of mRNA was injected with a nanoliter injector (Drummond Scientific, Vernon Hills, IL, USA). The recording was started after two days of sufficient shaking incubation in ND96 solution. Surgery, microinjections, and the other handling of Xenopus laevis followed the standard protocols.
The oocytes in which mRNA was expressed during the incubation period allowed for the estimation of channel or receptor properties for observing drug and ligand potential interactions using a two-electrode voltage clamp (OC-725C; Warner Instruments, Hamden, CT, USA) and Digidata (1322A; Molecular Devices, Sunnyvale, CA, USA). The two-electrode voltage clamp had voltage and current electrodes that stably maintained the potential and delivered the transmembrane potential and high current. […] A computer transferred the converted output amplitude of the voltage clamp amplifiers to an input digital converter using pClamp 10 software (Axon Instruments, Union City, CA, USA). The voltage and current electrodes were filled with 3 M KCl (0.3–0.7 MΩ) and analyzed at a −80 mV holding potential. The oocytes were placed in the chamber and exposed to a ND96 solution at a flow rate of 2 mL per minute. In the electrophysiological experiments, the voltage ramp recording was performed at room temperature, and a current from −80 to +60 mV was applied to determine the current and voltage relationships. Inward peak traces of the 5-HT3A receptor and voltage ramp traces were converted to a value through Clampfit 9.0 (Molecular Devices, San Jose, CA, USA).
In the experiments, all data were represented as the mean ± SEM (standard error of the mean) of the 5-HT-stimulated inward peak in the 5-HT3A receptors. […] All curves plotted through the Hill equation were generated using Origin Pro 7.0 (OriginLab, Northampton, MA, USA). The significance of differences between the control and chanoclavine treatment was determined according to the p-value in the Student’s t-test. p-values of less than 0.05 were considered statistically significant.

Take `CN[C@@H]1Cc2c[nH]c3cccc(c23)[C@H]1/C=C(\C)CO` [chanoclavine]: the inhibition at 10 µM (10 µM compound with 100 µM 5-HT, −80 mV, read-out: inhibition of I5-HT) is 4 ± 3.8%. Besides, the inhibition at 30 µM (30 µM compound with 100 µM 5-HT, −80 mV, read-out: inhibition of I5-HT) worked out at 7.9 ± 4.1%. Besides, the inhibition at 100 µM is 42.5 ± 5.7% (100 µM chanoclavine, wild type, read-out: Inhibition Percentage (%)) and 42.5 ± 9.7% (100 µM compound with 100 µM 5-HT, −80 mV, read-out: inhibition of I5-HT). Moreover, the inhibition at 200 µM (200 µM compound with 100 µM 5-HT, −80 mV, read-out: inhibition of I5-HT) turned out to be 61.6 ± 6.1%. For the same compound, the inhibition at 300 µM (300 µM compound with 100 µM 5-HT, −80 mV, read-out: inhibition of I5-HT) was 75 ± 4.5%. Moreover, the “Imax of normalized 5-HT concentration-response current” value is given as 94.6 ± 24.4 (5-HT 1 to 100 µM with 30 µM EC, −80 mV) and 60 ± 2.2 (5-HT 1 to 100 µM with 100 µM EC, −80 mV). The “inhibition of voltage ramp current activated by 5-HT” value (“inhibition … by 5-HT” for short) (+30 mV) is 47.9 ± 3.4%, the “inhibition … by 5-HT” value (+60 mV) was 49.5 ± 4% and the “inhibition … by 5-HT” value (−30 mV) is recorded as 40.9 ± 1.1%. Further, the “maximum inhibition (Imax)” value (Hill fit, co-application with 100 µM 5-HT, −80 mV) worked out at 83.6 ± 12.6%. Also, the IC50 (co-application with 5-HT, read-out: half-maximal inhibitory response concentration (IC50) for block of 5-HT-induced 5-HT3A response) came to 107 µM. In addition, where the note is “competing at the same rate as 5-HT”, the “current relative to the control group” value is given as “about 50%”. Besides, the “manner of regulation of 5-HT3A-receptor channel activity” value (varied 5-HT concentration, fixed 30 or 100 µM chanoclavine) was “competitive”. Further, the “effect of compound alone (without 5-HT)” value (−80 mV holding potential, data not shown) was “no change”.
